Patent US20240239766A1, “3-AMINO PIPERIDYL SODIUM CHANNEL INHIBITORS” (Genentech, Inc., priority 2021, published 2024)
Structures can show the parent of a compound that is named as a salt.

Molecular target: hNav1.7 (Homo sapiens (Human), UniProt Q15858)
Assay: Patch voltage clamp electrophysiology assay (EP), Syncropatch 384PE, CHO cells expressing Nav1.7
Format: cell-based
Settings: holding potential −50 mV; 7.5 min compound incubation; read-out: EP SP hNav1.7 EVO (IC50)
Excerpt: Example 101c: Electrophysiological Assay (EP) (In Vitro Assay)
Patch voltage clamp electrophysiology allows for the direct measurement and quantification of block of voltage-gated sodium channels (NaV's), and allows the determination of the time- and voltage-dependence of block which has been interpreted as differential binding to the resting, open, and inactivated states of the sodium channel (Hille, B., Journal of General Physiology (1977), 69: 497-515).
The following voltage clamp electrophysiology studies are performed on representative compounds using cells heterologously expressing Nav1.7 or Nav1.5 channels. cDNAsfor Nav1.7 (NM_002977) and Nav1.5 (AC137587) are stably expressed in Chinese Hamstr Ovary (CHO) cells and CHL (Chinese Hamster Lung) cells respectively. Sodium currents are measured in the whole-cell configuration using Syncropatch 384PE (Nanlon Technologies, Germany). 1NPC®-384 chips with custom medium resistance and single hole mode are used. Internal solution consists of (in mM): […], 10 CsCl, 20 EGTA, and 10 Hepes (pH adjusted to 7.2); and external solution contains (in mM): 60 NMDG, 80 NaCl, 4 KCl, 1 MgCl2, 2 CaCl2), 2 D-Glucose monohydrate, 10 Hepes (pH adjusted to 7.4 with NaOH).
After system flushing, testing compounds are dissolved in external solution containing 0.1% Pluronic F-127. The chip is moved into the measuring head and the instrument primes the chip with external and internal solutions. 10 μl cells are added to the chip from a cell hotel, and a negative pressure of −50 mBar is applied to form a seal. Following treatment with seal enhancer solution and wash-off with external solution, negative pressure of −250 mbar is applied for 1 second to achieve the whole-cell configuration, followed by three washing steps in external solution. 20 μl of compounds is added to 40 μl in each well (1:3 dilution of compounds), and after mixing, 20 μl is removed so the volume is retained at 40 ul. After approximately 13 minutes recordings, 20 μl/well of 2 uM TTX, or 333 uM Tetracaine (for Nav1.5) is added to achieve full block.
For voltage protocol, an holding potential of −50 mV is applied during the whole experiment. A depolarizing step is applied to −10 mV for 10 ms, followed by a hyperpolarization step to −150 mV for 20 ms to allow channel recovery from inactivation. A second depolarizing step is applied from −150 mV to −10 mV for 10 ms, where currents are measured to derive blocking effects of compounds. Inhibition is determined based on 7.5 min of compound incubation.

Chain of hNav1.7 (Q15858 other isoform, or with tags, fused parts or gaps): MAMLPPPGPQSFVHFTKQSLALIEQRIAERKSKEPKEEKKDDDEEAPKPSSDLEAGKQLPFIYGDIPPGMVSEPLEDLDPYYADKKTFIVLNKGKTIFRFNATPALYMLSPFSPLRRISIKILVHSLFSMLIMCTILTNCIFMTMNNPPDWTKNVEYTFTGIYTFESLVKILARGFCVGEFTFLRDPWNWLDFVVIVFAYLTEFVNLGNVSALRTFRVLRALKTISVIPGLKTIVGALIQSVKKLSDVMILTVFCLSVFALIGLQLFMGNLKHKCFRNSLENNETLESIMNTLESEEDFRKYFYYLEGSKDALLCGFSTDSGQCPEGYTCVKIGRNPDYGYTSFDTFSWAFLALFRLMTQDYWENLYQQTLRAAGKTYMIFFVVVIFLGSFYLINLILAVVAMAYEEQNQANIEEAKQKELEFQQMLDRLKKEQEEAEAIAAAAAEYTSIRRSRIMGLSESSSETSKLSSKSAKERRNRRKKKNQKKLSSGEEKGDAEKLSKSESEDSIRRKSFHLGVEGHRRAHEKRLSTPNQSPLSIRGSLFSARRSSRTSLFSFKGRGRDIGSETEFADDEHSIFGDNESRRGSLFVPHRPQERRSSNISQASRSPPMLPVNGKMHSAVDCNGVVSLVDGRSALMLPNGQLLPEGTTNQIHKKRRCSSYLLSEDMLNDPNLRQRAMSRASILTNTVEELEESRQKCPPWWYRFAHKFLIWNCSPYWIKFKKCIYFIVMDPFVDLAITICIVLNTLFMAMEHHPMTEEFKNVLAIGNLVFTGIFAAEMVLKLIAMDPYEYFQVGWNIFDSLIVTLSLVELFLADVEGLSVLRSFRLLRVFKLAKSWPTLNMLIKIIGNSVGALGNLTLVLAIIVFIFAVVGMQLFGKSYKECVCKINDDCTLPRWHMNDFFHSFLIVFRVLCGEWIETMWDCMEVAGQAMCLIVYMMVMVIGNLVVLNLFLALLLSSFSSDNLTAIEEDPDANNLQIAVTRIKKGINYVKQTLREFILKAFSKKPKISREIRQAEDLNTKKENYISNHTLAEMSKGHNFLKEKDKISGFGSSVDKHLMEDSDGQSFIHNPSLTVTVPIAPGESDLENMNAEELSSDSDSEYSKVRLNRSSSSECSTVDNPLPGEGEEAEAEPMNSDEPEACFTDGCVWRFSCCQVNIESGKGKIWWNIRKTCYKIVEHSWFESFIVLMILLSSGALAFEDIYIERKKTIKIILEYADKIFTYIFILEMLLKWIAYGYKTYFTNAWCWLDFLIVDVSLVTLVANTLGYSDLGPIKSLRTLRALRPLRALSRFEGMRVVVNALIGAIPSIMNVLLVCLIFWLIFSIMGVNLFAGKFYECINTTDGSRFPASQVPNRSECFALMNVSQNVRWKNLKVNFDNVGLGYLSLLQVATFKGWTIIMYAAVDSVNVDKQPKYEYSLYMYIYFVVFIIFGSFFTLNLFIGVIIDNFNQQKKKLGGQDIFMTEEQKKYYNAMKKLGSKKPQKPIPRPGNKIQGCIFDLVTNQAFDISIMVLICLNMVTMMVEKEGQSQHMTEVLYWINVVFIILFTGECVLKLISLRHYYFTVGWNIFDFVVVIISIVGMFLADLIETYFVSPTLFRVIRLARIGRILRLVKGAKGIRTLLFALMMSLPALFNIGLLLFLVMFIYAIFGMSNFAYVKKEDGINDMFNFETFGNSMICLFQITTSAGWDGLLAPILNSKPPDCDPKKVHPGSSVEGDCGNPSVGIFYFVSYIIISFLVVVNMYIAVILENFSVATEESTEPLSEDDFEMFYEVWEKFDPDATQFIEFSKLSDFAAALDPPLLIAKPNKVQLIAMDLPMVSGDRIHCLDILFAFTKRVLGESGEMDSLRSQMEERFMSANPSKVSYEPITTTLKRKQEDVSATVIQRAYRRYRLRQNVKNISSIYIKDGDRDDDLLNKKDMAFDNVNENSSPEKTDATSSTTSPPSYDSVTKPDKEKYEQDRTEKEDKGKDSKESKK

Row | Structure (SMILES) | IC50
1 | CN(C)[C@@]1(CCc2ccc(Cl)c(C(F)(F)F)c2)CCCN(c2cc(F)c(S(=O)(=O)Nc3ccncn3)c(F)c2)C1 (single isomer, unassigned) [Example 54] | 362 nM
2 | CN(C)[C@]1(CCc2ccc(Cl)c(C(F)(F)F)c2)CCCN(c2cc(F)c(S(=O)(=O)Nc3ccncn3)c(F)c2)C1 (single isomer, unassigned) [Example 55, formate] | 0.879 nM
3 | CN(C)[C@@]1(CCc2ccc(C(F)(F)F)cc2Cl)CCCN(c2cc(F)c(S(=O)(=O)Nc3ccncn3)c(F)c2)C1 (single isomer, unassigned) [Example 56] | 353 nM
4 | CN(C)[C@]1(CCc2ccc(C(F)(F)F)cc2Cl)CCCN(c2cc(F)c(S(=O)(=O)Nc3ccncn3)c(F)c2)C1 (single isomer, unassigned) [Example 57] | 5.04 nM
5 | CN(C)[C@@]1(CCc2cccc(C(F)(F)F)c2)CCCN(c2cc(F)c(S(=O)(=O)Nc3ccon3)c(F)c2)C1 (single isomer, unassigned) [Example 58] | 10000 nM
6 | CN(C)[C@]1(CCc2cccc(C(F)(F)F)c2)CCCN(c2cc(F)c(S(=O)(=O)Nc3ccon3)c(F)c2)C1 (single isomer, unassigned) [Example 59] | 16 nM
7 | CN(CCO)[C@@]1(CCc2cccc(C(F)(F)F)c2)CCCN(c2cc(F)c(S(=O)(=O)Nc3ccncn3)c(F)c2)C1 (single isomer, unassigned) [Example 60] | 138 nM
8 | CN(CCO)[C@]1(CCc2cccc(C(F)(F)F)c2)CCCN(c2cc(F)c(S(=O)(=O)Nc3ccncn3)c(F)c2)C1 (single isomer, unassigned) [Example 61] | 2.14 nM
9 | Cc1cc(N2CCC[C@](CCc3cccc(C(F)(F)F)c3)(N(C)C)C2)cc(C)c1S(=O)(=O)Nc1ccncn1 (single isomer, unassigned) [Example 62, formate] | 8.59 nM
10 | Cc1cc(N2CCC[C@@](CCc3cccc(C(F)(F)F)c3)(N(C)C)C2)cc(C)c1S(=O)(=O)Nc1ccncn1 (single isomer, unassigned) [Example 63, formate] | 177 nM
11 | CN(C)[C@@]1(CCc2cccc(C(F)(F)F)c2)CCCN(c2cc(Cl)c(S(=O)(=O)Nc3ccncn3)c(Cl)c2)C1 (single isomer, unassigned) [Example 64] | 1.54 nM
12 | CN(C)[C@]1(CCc2cccc(C(F)(F)F)c2)CCCN(c2cc(Cl)c(S(=O)(=O)Nc3ccncn3)c(Cl)c2)C1 (single isomer, unassigned) [Example 65] | 69.4 nM
13 | Cc1cc(N2CCC[C@](CCc3cccc(C(F)(F)F)c3)(N(C)C)C2)cc(Cl)c1S(=O)(=O)Nc1ccncn1 (single isomer, unassigned) [Example 66, formate] | 501 nM
14 | Cc1cc(N2CCC[C@@](CCc3cccc(C(F)(F)F)c3)(N(C)C)C2)cc(Cl)c1S(=O)(=O)Nc1ccncn1 (single isomer, unassigned) [Example 67, formate] | 2.4 nM
15 | CN(C)[C@@]1(CCc2c(Cl)cccc2Cl)CCCN(c2cc(F)c(S(=O)(=O)Nc3ccncn3)c(F)c2)C1 (single isomer, unassigned) [Example 68, formate] | 3140 nM
16 | CN(C)[C@]1(CCc2c(Cl)cccc2Cl)CCCN(c2cc(F)c(S(=O)(=O)Nc3ccncn3)c(F)c2)C1 (single isomer, unassigned) [Example 69, formate] | 27.7 nM
17 | CN(C)[C@@]1(CCc2cccc(C(F)(F)F)c2)CCCN(c2ccc(S(=O)(=O)Nc3ccncn3)c(Cl)c2)C1 (single isomer, unassigned) [Example 70] | 4.24 nM
18 | CN(C)[C@]1(CCc2cccc(C(F)(F)F)c2)CCCN(c2ccc(S(=O)(=O)Nc3ccncn3)c(Cl)c2)C1 (single isomer, unassigned) [Example 71, formate] | 560 nM
19 | Cc1cc(N2CCC[C@](CCc3cccc(C(F)(F)F)c3)(N(C)C)C2)ccc1S(=O)(=O)Nc1ccncn1 (single isomer, unassigned) [Example 72, formate] | 9.2 nM
20 | Cc1cc(N2CCC[C@@](CCc3cccc(C(F)(F)F)c3)(N(C)C)C2)ccc1S(=O)(=O)Nc1ccncn1 (single isomer, unassigned) [Example 73, formate] | 673 nM

Row | Structure (SMILES) | IC50
21 | CN(C)[C@]1(CCc2cccc(C(F)(F)F)c2)CN(c2cc(F)c(S(=O)(=O)Nc3ccncn3)c(F)c2)CC[C@H]1O (single isomer, unassigned) [Example 74, formate] | 1010 nM
22 | CN(C)[C@@]1(CCc2cccc(C(F)(F)F)c2)CN(c2cc(F)c(S(=O)(=O)Nc3ccncn3)c(F)c2)CC[C@@H]1O (single isomer, unassigned) [Example 75, formate] | 4.48 nM
23 | CN(C)[C@]1(CCc2cccc(C(F)(F)F)c2)CN(c2cc(F)c(S(=O)(=O)Nc3ccncn3)c(F)c2)CC[C@@H]1O (single isomer, unassigned) [Example 76, formate] | 30.8 nM
24 | CN(C)[C@@]1(CCc2cccc(C(F)(F)F)c2)CN(c2cc(F)c(S(=O)(=O)Nc3ccncn3)c(F)c2)CC[C@H]1O (single isomer, unassigned) [Example 77, formate] | 2.55 nM
25 | CCN(C)[C@@]1(CCc2cccc(C(F)(F)F)c2)CCCN(c2cc(F)c(S(=O)(=O)Nc3ccncn3)c(F)c2)C1 (single isomer, unassigned) [Example 78] | 974 nM
26 | CCN(C)[C@]1(CCc2cccc(C(F)(F)F)c2)CCCN(c2cc(F)c(S(=O)(=O)Nc3ccncn3)c(F)c2)C1 (single isomer, unassigned) [Example 79, formate] | 7.56 nM
27 | CN([C@H]1CCOC1)[C@@]1(CCc2cccc(C(F)(F)F)c2)CCCN(c2cc(F)c(S(=O)(=O)Nc3ccncn3)c(F)c2)C1 (single isomer, unassigned) [Example 80] | 283 nM
28 | CN([C@@H]1CCOC1)[C@]1(CCc2cccc(C(F)(F)F)c2)CCCN(c2cc(F)c(S(=O)(=O)Nc3ccncn3)c(F)c2)C1 (single isomer, unassigned) [Example 81] | 0.681 nM
29 | CN([C@@H]1CCOC1)[C@@]1(CCc2cccc(C(F)(F)F)c2)CCCN(c2cc(F)c(S(=O)(=O)Nc3ccncn3)c(F)c2)C1 (single isomer, unassigned) [Example 82] | 657 nM
30 | CN([C@H]1CCOC1)[C@]1(CCc2cccc(C(F)(F)F)c2)CCCN(c2cc(F)c(S(=O)(=O)Nc3ccncn3)c(F)c2)C1 (single isomer, unassigned) [Example 83] | 1.68 nM
31 | Cc1ccc(CC[C@]2(N(C)C)CCCN(c3cc(F)c(S(=O)(=O)Nc4ccncn4)c(F)c3)C2)cc1C(F)(F)F (single isomer, unassigned) [Example 84, formate] | 2.84 nM
32 | Cc1ccc(CC[C@@]2(N(C)C)CCCN(c3cc(F)c(S(=O)(=O)Nc4ccncn4)c(F)c3)C2)cc1C(F)(F)F (single isomer, unassigned) [Example 85] | 250 nM
33 | CN(C)[C@@]1(CCc2ccc(C3CC3)c(C(F)(F)F)c2)CCCN(c2cc(F)c(S(=O)(=O)Nc3ccncn3)c(F)c2)C1 (single isomer, unassigned) [Example 86] | 3.78 nM
34 | CN(C)[C@]1(CCc2ccc(C3CC3)c(C(F)(F)F)c2)CCCN(c2cc(F)c(S(=O)(=O)Nc3ccncn3)c(F)c2)C1 (single isomer, unassigned) [Example 87] | 682 nM
35 | CN(C)[C@@]1(CCc2cccc(C3CC3)c2)CCCN(c2cc(F)c(S(=O)(=O)Nc3ccncn3)c(F)c2)C1 (single isomer, unassigned) [Example 88, formate] | 3.29 nM
36 | CN(C)[C@]1(CCc2cccc(C3CC3)c2)CCCN(c2cc(F)c(S(=O)(=O)Nc3ccncn3)c(F)c2)C1 (single isomer, unassigned) [Example 89, formate] | 567 nM
37 | CN(C)[C@@]1(CCc2cccc(Cl)c2)CCCN(c2cc(F)c(S(=O)(=O)Nc3ccncn3)c(F)c2)C1 (single isomer, unassigned) [Example 90, formate] | 4460 nM
38 | CN(C)[C@]1(CCc2cccc(Cl)c2)CCCN(c2cc(F)c(S(=O)(=O)Nc3ccncn3)c(F)c2)C1 (single isomer, unassigned) [Example 91, formate] | 11.6 nM
39 | CN[C@]1(CCc2cccc(C(F)(F)F)c2)CCCN(c2ccc(S(=O)(=O)Nc3ccncn3)c(F)c2)C1 [Example 3, (R)-2-Fluoro-4-(3-(methylamino)-3-(3-(trifluoromethyl)-phenethyl)piperidin-1-yl)-N-(pyrimidin-4-yl)benzenesulfonamide] | 21.5 nM
